The values that follow come from paper PMC3111241 (Anesthesiology, 2009).

The nature of one data set: Intravenous. To be noted: for EH (hepatic extraction) / AUC(0-inf) / Cmax: 6.0 mg IV methadone HCl; for AUC(0-t) / AUC(0-inf) / Cmax: human, plasma, iv, 6 mg; for AUC(0-t): AUC0-96, 6.0 mg IV methadone HCl; for AUC(0-inf): AUC0-∞.
The next data set is described as follows: Oral. The note with it: human, plasma, 11 mg, control.
Data set [1] relates to dark-adapted pupil diameter (miosis). Nature of the data set: Methadone pupil effect. The format is in vivo, human. The note with it: for AUEC0-∞ / Maximum miosis: 6.0 mg IV and 11.0 mg oral methadone HCl.
A further data set concerns CYP3A. To be noted: in vivo; cited from earlier work.
The mark [2] stands for this setting: steady-state ritonavir/indinavir.

The term AUC(0-t) denotes the area under the concentration-time curve up to a stated or last time point. What is called AUC(0-inf) is the area under the concentration-time curve extrapolated to infinity. By Cmax is commonly meant the highest concentration seen after dosing. As to `CCC(=O)C(C[C@H](C)N(C)C)(c1ccccc1)c1ccccc1` [S-methadone], the “EH (hepatic extraction)” value stood at 0.10 ± 0.04 in “Intravenous” (acute ritonavir/indinavir), 0.08 ± 0.02 in the data set “Intravenous” (control) and 0.10 ± 0.04 in the data set “Intravenous” (setting [2]). Also, the area under the curve AUC(0-t) in the data set “Intravenous” (acute ritonavir/indinavir) is 353 ± 150 ng·h/mL; in “Intravenous” (control) it was 401 ± 81 ng·h/mL; in the data set “Intravenous” (setting [2]) it was 377 ± 170 ng·h/mL; in “Oral” (AUC0-96, 11.0 mg oral methadone HCl), 639 ± 165 ng·h/mL. For the same compound, the total exposure AUC(0-inf) in “Intravenous” (acute ritonavir/indinavir) was 390 ± 178 ng·h/mL; in the data set “Intravenous” (control), 436 ± 91 ng·h/mL; in the data set “Intravenous” (setting [2]) it was 406 ± 185 ng·h/mL; in the data set “Oral” (AUC0-∞, 11.0 mg oral methadone HCl) it was 710 ± 185 ng·h/mL. Besides, the highest concentration (Cmax) in the data set “Intravenous” (acute ritonavir/indinavir) stood at 69 ± 26 ng/mL; in the data set “Intravenous” (control) it was 90 ± 53 ng/mL; in the data set “Intravenous” (setting [2]), 80 ± 33 ng/mL; in the data set “Oral” (Cmax, 11.0 mg oral methadone HCl), 23 ± 6 ng/mL.
As for `CCC(=O)C(CC(C)N(C)C)(c1ccccc1)c1ccccc1` (centres unmarked) [methadone], the results for the “AUEC0-∞” value in data set [1] (acute ritonavir/indinavir), in data set [1] (control) and in data set [1] (setting [2]) were 65 ± 26 mm/h, 52 ± 24 mm/h and 48 ± 25 mm/h, respectively. In addition, the Maximum miosis came to 3.5 ± 0.7 mm in data set [1] (acute ritonavir/indinavir), 2.9 ± 1.0 mm in data set [1] (control) and 3.2 ± 0.8 mm in data set [1] (setting [2]). In addition, the “methadone miosis and concentration-effect relationships, change by acute or steady-state ritonavir/indinavir” value in data set [1] (in vivo) is “not significantly changed”.
On to `Cc1c(O)cccc1C(=O)N[C@@H](CSc1ccccc1)[C@H](O)CN1C[C@H]2CCCC[C@H]2C[C@H]1C(=O)NC(C)(C)C` [nelfinavir], for which the “inhibition of hepatic and first-pass CYP3A” value with CYP3A was over 75%.
